According to US10632106B2, “Methods of cancer treatment with 2-(1′H-Indole-3′-carbonyl)-thiazole-4-carboxylic acid methyl ester” (Ariagen, Inc., priority 2009, dated 2020):

What was measured:
Type in all cases: in vivo
[1] = test system: human ovarian cancer cell line OVCAR-3 xenografts; experiment: OVCAR-3 xenograft growth inhibition in nude mice
Procedure: (§1) All the procedures related to animal handling, care, and the treatment in the study were performed following guidelines approved by an Institutional Animal Care and Use Committee (IACUC) of Crown Bioscience, Inc. (Santa Clara, Calif., USA, a contract research organization we hired) based on the guidance of the Association for Assessment and Accreditation of Laboratory Animal Care (AAALAC). Animals were checked for any effects of tumor growth and drug treatment on normal behavior such as mobility, food and water consumption, body weight gain/loss (gross body weights were measured twice weekly), eye/hair matting, and any other abnormal effect. Death and observed clinical signs were recorded on the basis of the number of animals within each group. Individual animals with a tumor volume exceeding 3,000 mm^3 or animals of a group with a mean tumor volume exceeding 2,000 mm^3 were euthanized. In addition, animals showing signs of severe distress and/or pain, dropping body weight more than 20% from that at the start of treatment, or losing the capability of accessing adequate food or water were humanely sacrificed.
(§2) Each mouse was inoculated subcutaneously at the right flank with the LNCaP cells (1×10^7) in 0.1 ml of PBS for tumor development. When a mean tumor volume reached around 150 mm^3, the tumor-bearing mice were divided into homogeneous blocks based on their tumor volumes followed by a randomization of mice in each block into treatment groups (thus minimizing variations in tumor response to treatments due to the differential in initial mean tumor volumes). Each treatment group was consisted of 8 tumor-bearing mice. Vehicle (DMSO) or ITE in the vehicle at specified doses were administered to the mice by either i.p. (intraperitoneal) or p.o. (oral) injection once or twice daily for 28 continuous days as indicated.
(§3) Tumor volume was measured twice weekly in two dimensions using a caliper and the volume was calculated with a formula of: V=0.5 a×b^2, where a and b are the long and short diameter (in mm) of a tumor, respectively. The tumor volume was then used for calculations of both TGI (Tumor Growth Inhibition) and TGD (Tumor Growth Delay). The TGI was determined by: TGI=ΔT/ΔC×100%, where ΔT was a difference between the mean tumor volume at a specified day of observation and that at the day treatment starts (day 1) for a drug treated group whereas ΔC was the same difference measured for the control group. The TGD was calculated as: TGD=T−C, where T was the time (in days) required for tumors in a drug treated group to reach a predetermined mean tumor volume and C the time (in days) in the control group to reach the same volume. A tumor weight was derived by equating 1,000 mm^3 in volume to 1,000 mg in weight. A net body weight was then derived by subtracting a tumor weight from a corresponding gross body weight with the tumor.
(§4) Summary statistics, including mean and the standard error of the mean (SEM), are provided for the tumor volume of each group at each time point. Statistical analysis of difference in tumor volume among groups was conducted on a data set either at the best therapeutic time point or at the final dosing day as indicated. The tumor volume data were log-transformed and evaluated using a one-way ANOVA followed by Tukey's test when significance was observed. All data were analyzed using SPSS 16.0 and p<0.05 was considered to be statistically significant.
(§5) The culture and inoculation of human prostate cancer cell line LNCaP were as described in Example 1. The manipulation for human liver cancer cell line HepG2 (ATCC) was similar as that for LNCaP except that DMEM (instead of RPMI-1640) medium was used, the L-glutamine was not used, and 2×10^6 cells were used for inoculation into female nude mice. The handling of human ovarian cancer cell line OVCAR-3 (ATCC) was the same as that of LNCaP except that the DMEM medium was used and 5×10^6 cells were used for inoculation into female nude mice. […]

[2] = test system: human prostate cancer cell line LNCaP xenografts; experiment: LNCaP xenograft growth inhibition in nude mice; conditions: 20 mg/kg b.w. i.p. once daily
Procedure: as §1
The human prostate cancer cell line LNCaP (ATCC, American Type Culture Collection, Manassas, Va., USA) were maintained in vitro as monolayer culture in RPMI-1640 medium supplemented with 10% fetal bovine serum (FBS), 100 U/ml penicillin, 100 μg/ml streptomycin, and 2 mM L-glutamine at 37° C. in an atmosphere of 5% CO2 in air. The tumor cells were routinely subcultured twice a week. The cells growing in an exponential phase were harvested and counted for tumor inoculation.
as §2, §3, §4

[3] = test system: human liver cancer cell line HepG2 xenografts; experiment: HepG2 xenograft growth inhibition in nude mice
Procedure: as §1, §2, §3, §4, §5

[4] = 80 mg/kg i.p. once daily, at a tumor volume of 800 mm^3
[5] = female, nude, mouse, in vivo, 32 day

CCC(=O)c1csc(C(=O)c2c[nH]c3ccccc23)n1 [ITK]
net body weight loss ([1]; 80 mg/kg i.p. once daily): no obvious net body weight loss
TGD (Tumor Growth Delay) [1, 4]: 13 days
TGI (Tumor Growth Inhibition) ([1]; 80 mg/kg i.p. once daily, day 33, TGI=ΔT/ΔC×100%): 46%
mice died [1, 5]: 1 out of 8
TGD (Tumor Growth Delay) ([2]; at a tumor volume of 1,000 mm^3): 16 days
TGI (Tumor Growth Inhibition) ([2]; day 28, TGI=ΔT/ΔC×100%): 51%
net body weight loss ([3]; 80 mg/kg i.p. once daily): no obvious net body weight loss
TGD (Tumor Growth Delay) [3, 4]: 26 days
TGI (Tumor Growth Inhibition) ([3]; 80 mg/kg i.p. once daily, day 22, TGI=ΔT/ΔC×100%): 22%
mice died [3, 5]: 1 out of 8
